These results are taken from patent publication US20220361497A1, “METHOD FOR CONTROLLING GROWTH OF MICROORGANISMS AND/OR BIOFILMS IN AN INDUSTRIAL PROCESS” (Kemira Oyj, priority 2017, published 2022).

Format in all cases: cell-based
Test [1] has as its system Pseudoxanthomonas taiwanensis biofilms. The test can be described thus: Prevention of biofilm formation, 96-microwell plate with peg lids, Crystal Violet staining. Particulars: for Biofilm quantity after 48 h contact time, Abs. at 595 nm / Biofilm reduction after 48 h contact time: SPW, 45° C., 150 rpm. The source says:
(§1) Pure cultures of Meiothermus silvanus, a microbe species commonly found in paper machine biofilms (Ekman J, Journal of Industrial Microbiology & Biotechnology 34:203-211) and Pseudoxanthomonas taiwanensis, another species commonly found in paper machine environments (Desjardins, E & Beaulieu, C, Journal of Industrial Microbiology & Biotechnology 30:141-145) were used to study the efficacy of various chemicals to prevent biofilm formation.
(§2) Biofilm tests were done in either synthetic commercial R2-broth (Lab M Ltd, UK) or fibre-containing synthetic paper machine water, SPW (prepared according to Peltola et al., J. Ind. Microbiol. Biotechnol. 2011, 38: 1719-1727) using 96-microwell plate wells with peg lids (Thermo Fischer Scientific Inc., USA). Plates were incubated at 45° C. with a rotary shaking (150 rpm) providing high flow in each well.
(§3) For experiments of preventing biofilm formation wells of 96-microwell plates with peg-lids were filled with R2-broth or SPW, inoculated with the pure bacterial cultures and treated with different amounts of chemical compounds to be tested. Peg-lid was put on. After 24 hours the wells were emptied and a fresh solution of pure culture containing SPW or R2 broth with different amounts of test chemicals were added to the wells and the original peg-lid was put back in place. After an additional 24 hours, i.e., 48 hours after starting the test, the wells were emptied, rinsed and the peg lid and wells were left to dry.
(§4) The amount of biofilm formed on the microwells, and peg surfaces was quantified with a staining solution by adding 200 μl of 1% Crystal Violet (Merck Millipore KGaA, Germany) in methanol to each well and placing the peg-lid back on. After 3 minutes the wells were emptied, and the wells and pegs were rinsed 3 times with tap water. The attached Crystal Violet was dissolved into ethanol and the absorbance at 595 nm was measured. The values shown in the following tables are average absorbance from 8 replicate wells and pegs.
(§5) All absorbance values in Examples 1-6 are given actual measured values. In calculation for biofilm reduction percentages it was taken in account that the SPW alone for 2 days without any bacterial inoculum gave a background value of 0.14.

Test [2] has as its system Meiothermus silvanus biofilms. The test is described as above. Particulars: for Biofilm quantity after 48 h contact time in SPW, Abs. at 595 nm / Biofilm reduction after 48 h contact time in SPW / Biofilm quantity after 48 h contact time, Abs. at 595 nm / Biofilm reduction after 48 h contact time: SPW; for Biofilm quantity after 48 h contact time, Abs. at 595 nm / Biofilm reduction after 48 h contact time: 45° C., 150 rpm.
Source text: as §1, §2, §3, §4, §5

Test [3] deals with Pseudoxanthomonas taiwanensis biofilms. The test can be described thus: Removal of existing (preformed) biofilm, 96-microwell plate with peg lids, Crystal Violet staining. Particulars: SPW; for Biofilm quantity after 48 h pre-growth and 24 h contact time, Abs. at 595 nm / Biofilm reduction after 48 h pre-growth and 24 h contact time: 45° C., 150 rpm.
Source text: as §1, §2
(§6) For experiments of removing already existing (preformed) biofilm wells of 96-microwell plates with peg-lids were filled with SPW, inoculated with the pure bacterial cultures. Biofilm was grown for 24 hours without addition of any chemical compound to be tested. In some experiments after 24 hours the procedure was repeated by emptying the wells and by addition of a fresh solution of SPW inoculated with pure bacterial culture, again without any test chemical compound. The original peg-lid was put back in place and biofilm was allowed to grow for additional 24 h, i.e., in total 48 h.
(§7) After 24 or 48 hours after starting the test, the wells were emptied and a fresh solution of SPW, inoculated with the pure bacterial cultures and with different amounts of chemical compounds to be tested were added and the original peg-lid was placed back in place. After an additional 2 or 24 hours the wells were emptied, rinsed and the peg lid and wells were left to dry.
as §4, §5

The test system of test [4] is Meiothermus silvanus biofilms. Described as above. The conditions noted are these: SPW, 45° C., 150 rpm; for Biofilm quantity after 24 h pre-growth and 24 h contact time, Abs. at 595 nm / Biofilm reduction after 24 h pre-growth and 24 h contact time: separated isomer.
Source text: as §1, §2, §6, §7, §4, §5

[5] abbreviates: Compound B dosage 0.25 mg/l active.
[6] abbreviates: Compound B dosage 1 mg/l active.
The mark [7] stands for this setting: Compound B dosage 3 mg/l active.
Where [8] appears, read: Compound B dosage 10 mg/l active.
[9] abbreviates: Compound B dosage 0.1 mg/l active.
Where [10] appears, read: separated isomer, dosage 0.1 mg/l active.
Where [11] appears, read: separated isomer, dosage 0.2 mg/l active.

For Gramicidin [reference compound], the entries for the “Biofilm quantity after 48 h contact time in SPW, Abs at 595 nm” value in test [1] (Gramicidin dosage 3 mg/l), in test [1] (Gramicidin dosage 10 mg/l) and in test [1] (Gramicidin dosage 25 mg/l) were 2.25, 2.41 and 2.42, respectively. Moreover, the “Biofilm reduction after 48 h contact time in SPW” value in test [1] (Gramicidin dosage 3 mg/l) is on record as 5.4%; in test [1] (Gramicidin dosage 10 mg/l), −1.8%; in test [1] (Gramicidin dosage 25 mg/l), −2.2%; in test [2] (Gramicidin dosage 0.2 mg/l) it was 2.5%; in test [2] (Gramicidin dosage 1 mg/l), −4.1%; in test [2] (Gramicidin dosage 3 mg/l) it was 74.6%. In addition, the “Biofilm reduction after 48 h contact time in SPW” value in test [2] (Gramicidin dosage 10 mg/l) is 95.9%. For the same molecule, the “Biofilm quantity after 48 h contact time in SPW, Abs. at 595 nm” value in test [2] (Gramicidin dosage 0.2 mg/l) worked out at 1.33; in test [2] (Gramicidin dosage 1 mg/l) it was 1.41; in test [2] (Gramicidin dosage 3 mg/l), 0.45; in test [2] (Gramicidin dosage 10 mg/l), 0.19.
In the case of `Cc1ccc(S(=O)(=O)C=CC#N)cc1` [Compound A, 3-[(4-methylphenyl)sulfonyl]-2-propenenitrile], the “Biofilm quantity after 48 h contact time, Abs. at 595 nm” value was found to be 1.42 in test [1] (dosage 0.01 mg/l active); 1.26 in test [1] (dosage 0.03 mg/l active); 0.88 in test [1] (dosage 0.08 mg/l active); 0.55 in test [1] (dosage 0.13 mg/l active); 0.39 in test [1] (dosage 0.20 mg/l active); 0.80 in test [2] (dosage 0.01 mg/l active). The “Biofilm quantity after 48 h contact time, Abs. at 595 nm” value in test [2] (dosage 0.03 mg/l active) is 0.75; in test [2] (dosage 0.08 mg/l active), 0.58; in test [2] (dosage 0.13 mg/l active) it was 0.22; in test [2] (dosage 0.20 mg/l active), 0.15. The “Biofilm reduction after 48 h contact time” value in test [1] (dosage 0.01 mg/l active) is reported as 4.5%; in test [1] (dosage 0.03 mg/l active), 16.4%; in test [1] (dosage 0.08 mg/l active), 44.8%; in test [1] (dosage 0.13 mg/l active), 69.4%; in test [1] (dosage 0.20 mg/l active), 81.3%; in test [2] (dosage 0.01 mg/l active) it was 21.4%. Further, the “Biofilm reduction after 48 h contact time” value in test [2] (dosage 0.03 mg/l active) amounted to 27.4%; in test [2] (dosage 0.08 mg/l active), 47.6%; in test [2] (dosage 0.13 mg/l active), 90.5%; in test [2] (dosage 0.20 mg/l active), 98.8%. In test [2] (dosage of 0.13 mg/l active, synthetic paper machine water, high temperature, fibres present, high flow), the biofilm reduction effect result is “over 90%”. Further, the “Biofilm quantity after 48 h pre-growth and 24 h contact time, Abs. at 595 nm” value is recorded as 1.73 in test [3] (dosage 0.2 mg/l active) and 0.13 in test [3] (dosage 0.5 mg/l active). In addition, the “Biofilm reduction after 48 h pre-growth and 24 h contact time” value in test [3] (dosage 0.2 mg/l active) is 32.2%; in test [3] (dosage 0.5 mg/l active) it was 100.2%. Further, in test [3] (single dosage of 0.5 mg/l active compound, 48-hour pre-growth, 24 hours after addition), the “removal of already formed biofilm (in words)” value was “removed all of the biofilm”. Besides, the “Biofilm quantity after 48 h pre-growth and 2 h contact time, Abs. at 595 nm” value in test [4] (dosage 0.5 mg/l active) was 1.20; in test [4] (dosage 1 mg/l active), 1.11; in test [4] (dosage 2 mg/l active) it was 0.99. For the same molecule, the entries for the “Biofilm reduction after 48 h pre-growth and 2 h contact time” value in test [4] (dosage 0.5 mg/l active), in test [4] (dosage 1 mg/l active) and in test [4] (dosage 2 mg/l active) were 8.0%, 16.3% and 26.6%, respectively.
With `Nc1ccc(S(=O)(=O)Nc2nccs2)cc1` [Compound B, 4-amino-N-2-thiazolyl-benzenesulphonamide], the “Biofilm quantity after 48 h contact time, Abs. at 595 nm” value in test [1] (setting [5]) came out at 2.35; in test [1] (setting [6]), 2.04; in test [1] (setting [7]), 0.84; in test [1] (setting [8]), 0.54; in test [2] (setting [9]), 0.62; in test [2] (setting [5]) it was 0.18. The “Biofilm quantity after 48 h contact time, Abs. at 595 nm” value in test [2] (setting [6]) came to 0.15; in test [2] (setting [7]) it was 0.16; in test [2] (setting [8]), 0.18. Also, the “Biofilm reduction after 48 h contact time” value is 2.6% in test [1] (setting [5]); 16.3% in test [1] (setting [6]); 69.3% in test [1] (setting [7]); 82.4% in test [1] (setting [8]); 34.4% in test [2] (setting [9]); 94.0% in test [2] (setting [5]). The “Biofilm reduction after 48 h contact time” value was found to be 99.1% in test [2] (setting [6]), 97.9% in test [2] (setting [7]) and 94.0% in test [2] (setting [8]).
On to `Cc1ccc(S(=O)(=O)C=CC#N)cc1` [Z-isomer of Compound A, 3-[(4-methylphenyl)sulfonyl]-2-propenenitrile], for which the “Biofilm quantity after 48 h contact time, Abs. at 595 nm” value stood at 0.16 in test [1] (setting [10]), 0.16 in test [1] (setting [11]), 0.16 in test [2] (setting [10]) and 0.15 in test [2] (setting [11]). Besides, the “Biofilm reduction after 48 h contact time” value in test [1] (setting [10]) is reported as 99.3%; in test [1] (setting [11]), 99.3%; in test [2] (setting [10]), 99.1%; in test [2] (setting [11]), 99.4%. In addition, the “Biofilm quantity after 24 h pre-growth and 24 h contact time, Abs. at 595 nm” value in test [4] (dosage 0.2 mg/l active) was 0.81; in test [4] (dosage 1 mg/l active), 0.27. Further, the “Biofilm reduction after 24 h pre-growth and 24 h contact time” value stood at 71.3% in test [4] (dosage 0.2 mg/l active) and 94.6% in test [4] (dosage 1 mg/l active).
For `Cc1ccc(S(=O)(=O)C=CC#N)cc1` [E-isomer of Compound A, 3-[(4-methylphenyl)sulfonyl]-2-propenenitrile], the “Biofilm quantity after 48 h contact time, Abs. at 595 nm” value in test [1] (setting [10]) stood at 0.36; in test [1] (setting [11]), 0.16; in test [2] (setting [10]), 0.40; in test [2] (setting [11]), 0.16. In addition, the “Biofilm reduction after 48 h contact time” value was 90.6% in test [1] (setting [10]), 99.1% in test [1] (setting [11]), 88.9% in test [2] (setting [10]) and 99.3% in test [2] (setting [11]). For the same molecule, the results for the “Biofilm quantity after 24 h pre-growth and 24 h contact time, Abs. at 595 nm” value in test [4] (dosage 0.2 mg/l active) and in test [4] (dosage 1 mg/l active) were 0.90 and 0.26, respectively. The “Biofilm reduction after 24 h pre-growth and 24 h contact time” value in test [4] (dosage 0.2 mg/l active) was determined as 67.6%; in test [4] (dosage 1 mg/l active), 95.0%.
`N#CC(Br)(Br)C(N)=O` [DBNPA, 2,2-dibromo-3-nitrilopropionamide, reference compound]: the “dosage required to reach same (over 90%) biofilm reduction efficacy” value in test [2] (active compound, synthetic paper machine water, high temperature, fibres present, high flow) was 1 mg/L.
